Here are results for one compound from US12403121B2, “Anticancer rocaglamide derivatives” (priority 2018, dated 2025).

For series [1] the following is noted: Kinghorn et al. 2016 and NCI Developmental Therapeutics Program study, same conditions; cited from earlier work.
Series [2] has as its system STS26T NF1+/+ MPNST cells. The experiment in a line: 3-day resazurin cell proliferation assay, STS26T MPNST cells. The series is classed as cell-based, human. The conditions noted are these: Homo sapiens, STS-26T, 72 h, read-out: IC50 (nM) STS26T NF1+/+ MPNST cells. The protocol: (§1) The human MPNST cell lines, ST8814, STS26T, S462, T265, and luciferase-expressing ST8814-Luc, the human NF2-deficient meningioma cell line Ben-Men-1, the NJ2 mouse schwannoma cell line Sch10545, and primary human Schwann cells were propagated as previously described. Oblinger et al., Neuro-Oncol., 18:1265-1277 (2016). The Ewing sarcoma cell line A673 and the osteosarcoma cell lines, 143B and MG-63, were grown in Dulbecco's Modified Eagle's (DME) medium (Millipore-Sigma) supplemented with 10% fetal bovine serum (FBS; Atlanta Biological). The silvestrol-sensitive 697 and silvestrol-resistant 697-R pre-B acute lymphoblastic leukemia cells (Gupta et al., AAPS J., 13:357-364 (2011)), the Ewing sarcoma cell line TC32, the osteosarcoma cell lines, Saos2 and OS17, and the rhabdomyosarcoma cell line RD were cultivated in RPMI 1640 medium (Millipore-Sigma) plus 10% FBS.
(§2) Actively-growing cells were seeded in 96-well plates (Sarstedt) at 2,000 cells/well for Ben-Men-1 and RD cells, 30,000 cells/well for 697 and 697-R cells, and 4,000 cells/well for all other cell lines. The following day, cells were treated with various concentrations of each compound or and 0.05% of DMSO as the control for six days for MG-63 cells or three days for all remaining cell lines. Cell proliferation was assessed using resazurin assays and the IC50 value calculated. Cell cycle analysis was performed accordingly. Burns et al., Cancer Res., 73:792-803 (2013).
(§3) To search for compounds with better drug-like properties, the inventors conducted a side-by-side comparison of ten rocaglates lacking the dioxanyl ring with silvestrol for growth-inhibitory activity in a panel of MPNST, schwannoma, and meningioma cell lines, which they had previously shown to be sensitive to the antiproliferative action of silvestrol. […] The average IC50 value of each rocaglate was determined by 3-day resazurin proliferation assays. […] Further structure and activity comparison discerned some positions on the cyclopenta[b]benzofuran scaffold that affected the antiproliferative activity of rocaglates.

The test system of another series is 697 pre-B leukemia cells. Put plainly: Cell proliferation, parental silvestrol-sensitive 697 leukemic cells. Particulars: 72 h, 3 days treatment. Type of series: cell-based. The protocol:
(§4) FIGS. 3A-3C provide graphs showing that, unlike silvestrol, DDR and Roe inhibits proliferation of MDR1-overexpressing 697-R leukemic cells at IC50 values similar to parental silvestrol-sensitive 697 cells. Cell proliferation was measured on 697-R and parental 697 pre-B leukemia cells treated for 3 days with various concentrations of silvestrol (A), DDR (B), and Roc (C). Each treatment was performed in six replicates, and each experiment was repeated twice. Shown are representative dose-response growth inhibition curves from experiments for all three drugs that were run in parallel. The IC50 values for individual growth curves are shown in the graph insets.
(§5) The human MPNST cell lines, ST8814, STS26T, S462, T265, and luciferase-expressing ST8814-Luc, the human NF2-deficient meningioma cell line Ben-Men-1, the NJ2 mouse schwannoma cell line Sch10545, and primary human Schwann cells were propagated as previously described. Oblinger et al., Neuro-Oncol., 18:1265-1277 (2016). […]
(§6) Actively-growing cells were seeded in 96-well plates (Sarstedt) at 2,000 cells/well for Ben-Men-1 and RD cells, 30,000 cells/well for 697 and 697-R cells, and 4,000 cells/well for all other cell lines. […] Cell proliferation was assessed using resazurin assays and the IC50 value calculated. […]

Series [3] relates to Ben-Men-1 NF2−/− meningioma cells. The experiment in a line: 3-day resazurin cell proliferation assay, Ben-Men-1 meningioma cells. The series is classed as cell-based, human. The conditions noted are these: Homo sapiens, 72 h, read-out: IC50 (nM) Ben-Men-1 NF2−/− meningioma cells. Here is the method:
as §1, §2, §3

Series [4] concerns 697-R leukemic cells (overexpress MDR1/Pgp). The experiment in a line: Cell proliferation, MDR1-overexpressing silvestrol-resistant 697-R leukemic cells. The series is classed as cell-based. Particulars: MDR1, 72 h, read-out: IC50 in 697-R cells. The protocol:
as §4, §5, §6

Series [5] has as its target multidrug resistance 1 (MDR1) transporter (Homo sapiens, UniProt P08183). Particulars: cited from earlier work.
In series [6] the test system is ST8814 NF1−/− MPNST cells. The experiment in a line: 3-day resazurin cell proliferation assay, ST8814 MPNST cells. Type of series: cell-based, human. Particulars: Homo sapiens, ST88-14, 72 h, read-out: IC50 (nM) ST8814 NF1−/− MPNST cells. Here is the method:
as §1, §2, §3

Series [7] concerns Sch10545 Nf2−/− schwannoma cells. The experiment in a line: 3-day resazurin cell proliferation assay, Sch10545 schwannoma cells. Particulars: Mus musculus, 72 h, read-out: IC50 (nM) Sch10545 Nf2−/− schwannoma cells. The series is classed as cell-based, mouse. Here is the method:
as §1, §2, §3

The conditions of series [8]: Saradhi et al. 2011; cited from earlier work.

As to `COC(=O)[C@H]1[C@@H](O)[C@@]2(O)c3c(OC)cc(O[C@@H]4O[C@@H]([C@H](O)CO)CO[C@H]4OC)cc3O[C@@]2(c2ccc(OC)cc2)[C@@H]1c1ccccc1` [Silvestrol, reference compound], the “pulmonary toxicity in dogs” value in series [1] is listed as “unexpected pulmonary toxicity”. The IC50 in series [2] was 10 nM; in the series on 697 pre-B leukemia cells, 3.5 nM; in series [3], 10 nM; in series [4], 26 nM; in series [6], 40 nM; in [7] it was 70 nM. Besides, the “substrate for the MDR1 transporter” value in [5] is “substrate”. Also, the oral bioavailability entry in series [8] is given as “less than 2%”.
